Measurements as given in patent US20260274865A1, “Fused Ring Compound and Preparation Method Therefor and Use Thereof” (SICHUAN KELUN-BIOTECH BIOPHARMACEUTICAL CO., LTD., priority 2023, published 2026).
Read-outs that look alike come from different tables or passages of the source.

How the values were obtained:
Assay type in all cases: cell-based
HT29 colon cancer cells = experiment: Inhibitory effect of compounds on HT29 cell proliferation (Cell Counting-Lite 2.0, 72 h); conditions: Homo sapiens
Procedure: (1) Cell plating: First, tumor cells HT29 were cultured in the corresponding culture medium, the cells were digested with trypsin, and the cells were resuspended after centrifugation and counted. The cells were adjusted to an appropriate concentration for plating.
(§1) Co-incubation of the compound of the present invention and tumor cells: After the cells adhered, the culture medium was removed from the cell culture plates, and the diluted biologically active molecule (the compound of the present invention) was added to the wells of the above plate, and incubated for 72 hours.
(§2) Detection of in vitro cell activity: After the incubation was completed, 50 μL of Cell Counting-Lite™ 2.0 reagent (Vazyme) was added to each well, shaken and mixed well in the dark to perform the reaction for 10 minutes, then the detection was carried out, and a microplate reader (manufacturer: BMG, model: PHERAStar-FS) was used for reading. The background RLU was obtained using Cell Counting-Lite™ reagent in cell-free culture medium, and the solvent RLU was obtained using Cell Counting-Lite™ reagent in cell-containing culture medium. […] RLU: relative light unit.

HCC1954 cells = experiment: Inhibitory effect of compounds on proliferation of HCC1954 cells (Cell Counting-Lite 2.0, 72 h); conditions: Homo sapiens
Procedure: (1) Cell plating: First, tumor cells HCC1954 were cultured in the corresponding culture medium, the cells were digested with trypsin, and the cells were resuspended after centrifugation and counted. The cells were adjusted to an appropriate concentration for plating.
as §1, §2

[1] = test system: NCI-H1975 human non-small cell lung cancer cells; experiment: Inhibitory effect of compounds on proliferation of NCI-H1975 cells (Cell Counting-Lite 2.0, 72 h); conditions: Table 10, incubated for 72 hours
Procedure: (1) Cell plating: First, tumor cells NCI-H1975 were cultured in the corresponding culture medium, the cells were digested with trypsin, and the cells were resuspended after centrifugation and counted. The cells were adjusted to an appropriate concentration for plating.
as §1, §2

[2] = test system: NCI-N87 human gastric cancer cells; experiment: Inhibitory effects of compounds on NCI-N87 cell proliferation (Cell Counting-Lite 2.0, 72 h); conditions: NCI-N87, 72 h
Procedure: (1) Cell plating: First, tumor cells NCI-N87 were cultured in the corresponding culture medium, the cells were digested with trypsin, and the cells were resuspended after centrifugation and counted. The cells were adjusted to an appropriate concentration for plating.
as §1, §2

[3] = test system: HCC827 human non-small cell lung cancer cells; experiment: Inhibitory effect of compounds on HCC827 cell proliferation (Cell Counting-Lite 2.0, 72 h); conditions: Table 6, incubated for 72 hours, read-out: Inhibition activity of compounds on proliferation of HCC827 cells IC50
Procedure: (1) Cell plating: First, tumor cells HCC827 were cultured in the corresponding culture medium, the cells were digested with trypsin, and the cells were resuspended after centrifugation and counted. The cells were adjusted to an appropriate concentration for plating.
as §1, §2

[4] = HT-29, Table 4-2, incubated for 72 hours
[5] = Table 8-2, incubated for 72 hours, read-out: Inhibitory activity of compounds on proliferation of HCC1954 cells IC50
[6] = Table 2-2, incubated for 72 hours
[7] = HT-29, Table 4-1, incubated for 72 hours
[8] = Table 8-1, incubated for 72 hours, read-out: Inhibition activity of compounds on proliferation of HCC1954 cells IC50
[9] = Table 2-1, incubated for 72 hours

Compound | IC50 (HT29 colon cancer cells; [4]) | IC50 (HCC1954 cells; [5]) | IC50 [1] | IC50 [2, 6] | IC50 [3] | IC50 (HT29 colon cancer cells; [7]) | IC50 (HCC1954 cells; [8]) | IC50 [2, 9]
COc1cc2c(cc1OCCCCCOc1cc3c(cc1OC)C(=O)N1CC4(CC4)C[C@H]1CN3)NC[C@@H]1CC(c3ccc(O)cc3)=CN1C2=O [Compound 7-3, (S)-8-((5-(((S)-2-(4-Hydroxyphenyl)-7-methoxy-5-oxo-5,10,11,11a-tetrahydro-1H-benzo[e]pyrrolo[1,2-a][1,4]diazepin-8-yl)oxy)pentyl)oxy)-7-methoxy-1,10,11,11a-tetrahydro-3H,5H-spiro[benzo[e]pyrrolo[1,2-a][1,4]diazepin-2,1′-cyclopropane]-5-one] | 10.2 nM | 208 nM | 124 nM | 79.3 nM |  |  |  | 
COc1cc2c(cc1OCCCCCOc1cc3c(cc1OC)C(=O)N1CC4(CC4)C[C@H]1CN3)NC[C@@H]1CC(c3ccc(N)cc3)=CN1C2=O [Compound 7-5, (S)-8-((5-(((S)-2-(4-Aminophenyl)-7-methoxy-5-oxo-5,10,11,11a-tetrahydro-1H-benzo[e]pyrrolo[1,2-a][1,4]diazepin-8-yl)oxy)pentyl)oxy)-7-methoxy-1,10,11,11-tetrahydro-3H,5H-spiro[benzo[e]pyrrolo[1,2-a][1,4]diazepin-2,1′-cyclopropane]-5-one] |  |  | 12.3 nM | 4.1 nM | 13.1 nM | 1.4 nM | 25.9 nM | 3.2 nM
COc1cc2c(cc1OCCCCCOc1cc3c(cc1OC)C(=O)N1CC4(CC4)C[C@H]1CN3)NC[C@@H]1CC3(CC3)CN1C2=O [Compound 7-9] |  |  | 107 nM |  | 116 nM | 14.9 nM | 125 nM | 29.7 nM
COc1cc2c(cc1OCCCCCOc1cc3c(cc1OC)C(=O)N1CC(F)(F)C[C@H]1CN3)NC[C@@H]1CC(c3ccc(N)cc3)=CN1C2=O [Compound 7-29, (S)-2-(4-aminophenyl)-8-((5-(((S)-2,2-difluoro-7-methoxy-5-oxo-2,3,5,10,11,11a-hexahydro-1H-benzo[e]pyrrolo[1,2-a][1,4]diazepin-8-yl)oxy)pentyl)oxy)-7-methoxy-1,10,11,11a-tetrahydro-5H-benzo[e]pyrrolo[1,2-a][1,4]diazepin-5-one] |  | 154 nM |  | 117 nM |  |  |  | 
COc1cc2c(cc1OCCCCCOc1cc3c(cc1OC)C(=O)N1CC4(CC4)C[C@H]1CN3)NC[C@@H]1C[C@@H](c3ccc(N)cc3)CN1C2=O [Compound 7-34, (S)-8-((5-(((2S,11aS)-2-(4-aminophenyl)-7-methoxy-5-oxo-2,3,5,10,11,11a-hexahydro-1H-benzo[e]pyrrolo[1,2-a][1,4]diazepin-8-yl)oxy)pentyl)oxy)-7-methoxy-1,10,11,11a-tetrahydro-3H,5H-spiro[benzo[e]pyrrolo[1,2-a][1,4]diazepin-2,1′-cyclopropane]-5-one] |  |  |  | 120 nM |  |  |  | 
COc1cc2c(cc1OCCCCCOc1cc3c(cc1OC)C(=O)N1CC4(CC4)C[C@H]1CN3)NC[C@@H]1C[C@H](c3ccc(N)cc3)CN1C2=O [Compound 7-35] |  |  |  | 118 nM |  |  |  | 
COc1cc2c(cc1OCCCCCOc1cc3c(cc1OC)C(=O)N1CC4(CC4)C[C@H]1CN3)NC[C@@H]1CC(c3ccoc3)=CN1C2=O [Compound 7-36, (S)-8-((5-(((S)-2-(furan-3-yl)-7-methoxy-5-oxo-5,10,11,11a-tetrahydro-1H-benzo[e]pyrrolo[1,2-a][1,4]diazepin-8-yl)oxy)pentyl)oxy)-7-methoxy-1,10,11,11a-tetrahydro-3H,5H-spiro[benzo[e]pyrrolo[1,2-a][1,4]diazepin-2,1′-cyclopropane]-5-one] |  |  | 114 nM |  | 126 nM | 14.7 nM | 144 nM | 15.4 nM
COc1cc2c(cc1OCCCCCOc1cc3c(cc1OC)C(=O)N1CC4(CC4)C[C@H]1CN3)NC[C@@H]1CC(c3ccsc3)=CN1C2=O [Compound 7-37, (S)-7-methoxy-8-((5-(((S)-7-methoxy-5-oxo-2-(thien-3-yl)-5,10,11,11a-tetrahydro-1H-benzo[e]pyrrolo[1,2-a][1,4]diazepin-8-yl)oxy)pentyl)oxy)-1,10,11,11a-tetrahydro-3H,5H-spiro[benzo[e]pyrrolo[1,2-a][1,4]diazepin-2,1′-cyclopropane]-5-one] |  |  | 101 nM |  | 124 nM | 16.2 nM | 148 nM | 24.2 nM
COc1cc2c(cc1OCCCCCOc1cc3c(cc1OC)C(=O)N1CC4(CC4)C[C@H]1CN3)NC[C@@H]1CC(c3csc(CO)c3)=CN1C2=O [Compound 7-38, (S)-8-((5-(((S)-2-(5-(hydroxymethyl)thien-3-yl)-7-methoxy-5-oxo-5,10,11,11a-tetrahydro-1H-benzo[e]pyrrolo[1,2-a][1,4]diazepin-8-yl)oxy)pentyl)oxy)-7-methoxy-1,10,11,11a-tetrahydro-3H,5H-spiro[benzo[e]pyrrolo[1,2-a][1,4]diazepin-2,1′-cyclopropane]-5-one] |  |  | 105 nM |  | 139 nM | 15.4 nM | 695 nM | 49.7 nM
COc1ccc(C2=CN3C(=O)c4cc(OC)c(OCCCCCOc5cc6c(cc5OC)C(=O)N5CC(F)(F)C[C@H]5CN6)cc4NC[C@@H]3C2)cc1 [Compound 7-39, (S)-8-((5-(((S)-2,2-difluoro-7-methoxy-5-oxo-2,3,5, 10,11,11a-hexahydro-1H-benzo[e]pyrrolo[1,2-a][1,4]diazepin-8-yl)oxy)pentyl)oxy)-7-methoxy-2-(4-methoxyphenyl)-1,10,11,11a-tetrahydro-5H-benzo[e]pyrrolo[1,2-a][1,4]diazepin-5-one] | 9.7 nM | 140 nM | 12.3 nM | 11 nM |  |  |  | 
COc1ccc(C2=CN3C(=O)c4cc(OC)c(OCCCCCOc5cc6c(cc5OC)C(=O)N5C[C@H](O)C[C@H]5CN6)cc4NC[C@@H]3C2)cc1 [Compound 7-40, (S)-8-((5-(((2R,11aS)-2-hydroxy-7-methoxy-5-oxo-2,3,5,10,11,11a-hexahydro-1H-benzo[e]pyrrolo[1,2-a][1,4]diazepin-8-yl)oxy)pentyl)oxy)-7-methoxy-2-(4-methoxyphenyl)-1,10,11,11a-tetrahydro-5H-benzo[e]pyrrolo[1,2-a][1,4]diazepin-5-one] |  | 128 nM |  | 93.6 nM |  |  |  | 
C=C1C[C@H]2CNc3cc(OCCCCCOc4cc5c(cc4OC)C(=O)N4C=C(c6ccc(OC)cc6)C[C@H]4CN5)c(OC)cc3C(=O)N2C1 [Compound 7-41, (S)-7-methoxy-8-((5-(((S)-7-methoxy-2-methylene-5-oxo-2,3,5,10,11,11a-hexahydro-1H-benzo[e]pyrrolo[1,2-a][1,4]diazepin-8-yl)oxy)pentyl)oxy)-2-(4-methoxyphenyl)-1,10,11,11a-tetrahydro-5H-benzo[e]pyrrolo[1,2-a][1,4]diazepin-5-one] |  |  | 69.9 nM |  | 225 nM | 9.8 nM | 259 nM | 12.7 nM
COc1ccc(C2=CN3C(=O)c4cc(OC)c(OCCCCCOc5cc6c(cc5OC)C(=O)N5[C@H](CN6)C[C@H]6C[C@H]65)cc4NC(=O)[C@@H]3C2)cc1 [Compound 7-42] | 99.7 nM |  |  | 100 nM |  |  |  | 
COc1ccc(C2=CN3C(=O)c4cc(OC)c(OCCCCCOc5cc6c(cc5OC)C(=O)N5[C@H](CN6)C[C@H]6C[C@H]65)cc4NC[C@@H]3C2)cc1 [Compound 7-43, (1aR,9aS,10aR)-5-methoxy-6-((5-(((S)-7-methoxy-2-(4-methoxyphenyl)-5-oxo-5,10,11,11a-tetrahydro-1H-benzo[e]pyrrolo[1,2-a][1,4]diazepin-8-yl)oxy)pentyl)oxy)-1a,8,9,9a,10,10a-hexahydrobenzo[e]cyclopropo[4,5]pyrrolo[1,2-a][1,4]diazepin-3(1H)-one] | 10.2 nM |  |  | 10.1 nM |  |  |  | 
